Results reported in patent US7288573B2, “Method of repelling insects” (priority 2001, dated 2007).
Several values for one entry are separate records, joined by “and”; a condition that tells them apart may be missing. Equal entries are not always repeated. Entries after “also recorded” stand apart in the source; their conditions may differ.

Experiments:
Assay type in all cases: in vivo
[1] = test system: cockroaches; assay: Cockroach repellency, paste floor wax with 2-undecanone; details: one percent by weight in paste floor wax
Text: A commercially available paste floor wax is combined with one percent by weight of 2-undecanone and the two ingredients mixed thoroughly together. The paste floor wax is then applied to a region of flooring and buffed. The same paste floor wax, without 2-undecanone, is applied to an adjacent region of flooring in the same amount and also buffed.

[2] = test system: Aedes aegypti; assay: Mosquito repellency of 2-undecanone versus DEET and Citronella in mineral oil (Example 9); details: for Percent Efficacy Post-Treatment / NP, Mean / Percent (percent of mosquitoes responding, landings on the treated hand/arm) / NP / number of bites recorded / observed repellent activity (words): 20% in mineral oil; for NP: single replicates; for observed repellent activity (words): observed 0 to 12 hours
Text: Cages. Two mosquitoes cages were used for this experiment. The cages were constructed using wood framing and fine mesh wire screen. The dimensions of each cage were 59 cm high×55 cm wide by 59 cm deep. A hinged access door was installed at the front of each chamber for insertion of the water-filled containers filled with mosquito larvae. Also present at the front of each chamber was a 9 cm (I.D.) diameter plastic tube for insertion of the arm of the investigator. The arm insertion tube was sealed with a rubber stopper when not in use.
Mosquitoes and Mosquito Rearing. Mosquitoes (Aedes aegypti) were obtained as eggs from Dr. Gary Benzon (Benzon Research, Inc., Carlisle, Pa. 17013, USA) and allowed to hatch at three successive intervals so as to provide a continuing long-term supply of fresh insects. Following their arrival, the egg rafts were divided into approximately equal numbers in multiple water-filled containers within the test chambers, which also served as emergence cages. Following hatching, the larval cultures were fed with insect rearing compound supplied by United States Department of Agriculture, Gainesville, Fla., USA, courtesy of a person The water in the breeding chambers was changed regularly at two or three day intervals by filtration to minimize contamination and prevent overcrowding. Mosquitoes were bred throughout the 3-week study period in order to maintain a continuing supply of fresh insects (see below) and build up the population, usually exceeding 100 insects per cage.
Test Compounds and Testing Schedule. Testing was done with the mineral oil formulation of 2-undecanone for repellent activity by treating one arm of the investigator with approximately 1 ml of the test formulation. To avoid excessive bites and development of severe allergic reactions from multiple mosquito bites, treatments were applied to removable strips of cotton cloth taped to all parts of the investigator's hand and arm. Treatments were applied in a separate room, far from the mosquito cages. Following several minutes for the oil to soak in place, the cloth strips saturated with the treatment solution was attached to the investigator's wrist. Then, the treated arm was inserted through the insertion tube for 5 minutes. The other arm was treated with mineral oil (control) or a different compound and inserted into the insertion tube of the adjacent chamber. Next, the behavior of the mosquitoes in response to the presence of the investigator's arms was noted. Mosquito behavior was recorded as 1) landing or attempting to land on the investigator's hand or arm; 2) biting and sucking blood; or 3) dispersal away from the treated hand and arm towards the opposite ends of the cage. The approximate number of mosquitoes present in the cage at the beginning of each observation was noted. Treatments were alternated between the different cages. Each observation was repeated 3 times.
2-undecanone, DEET and Citronella arrived as liquids mixed in mineral oil in sealed plastic vials. To prepare the compounds for testing, the stocks were shaken vigorously to thoroughly mix the compounds in the mineral oil carrier, the vials opened and 1 ml samples applied directly as described above.
Observations. Mosquitoes were recorded as 1) repelled if they dispersed away from the treated hand/arm, changed course while in flight after approaching the treated hand/arm, touched the treated hand/arm and quickly withdrew; versus 2) not repelled if they landed on the treated hand/arm and remained on the cloth or skin of the investigator, or bit the investigator and sucked blood. The number of bites during the exposure period also was recorded.
[…] Efficacy was calculated according to the formula: Efficacy=[(no.landings/no.present in control)−(no.landings/no. present in experimental) divided by (no.landings/no.present in control)]×100.

[3] = test system: Culex spp.; assay: Mosquito repellency of 2-undecanone, treated arm in cage (Example 5); details: for No. landings: single replicates; for observed mosquito behavior / repellent effect (words): observed at 0, 3 and 6 hours
Text: Two mosquitoes cages were constructed using wood framing and fine mesh wire screen. The dimensions of each cage were 59 cm high×55 cm wide×59 cm deep. A hinged access door was installed at the front of each chamber for insertion of the water-filled containers filled with mosquito pupae. Also present at the front of each chamber was a 9 cm diameter plastic tube (i.d.) for insertion of the arm of the investigator. The arm insertion tube was sealed with a rubber stopper when not in use.
Mosquitoes (Culex spp.) were obtained (as pupae) from Carolina Biological Supply Co., Burlington, N.C., USA. Following their arrival, the mosquitoes were divided into approximately equal numbers in two water-filled containers and placed in the two cages described above. Some of the mosquitoes had hatched upon arrival.
Testing was done with 2-undecanone for repellent activity by treating one arm of the investigator with approximately 1 ml of the test solution. Following several minutes for solvent evaporation, the treated arm was inserted through the insertion tube for 5 minutes. The other arm was treated with ethanol (control) or a different concentration of 2-undecanone, and inserted into the insertion tube of the adjacent chamber. Next, the behavior of the mosquitoes in response to the presence of the investigator's arms was noted. Mosquito behavior was recorded as 1) landing or attempting to land on the investigator's arm, versus 2) dispersal away from the treated arm towards the opposite ends of the cage. The approximate number of mosquitoes present at the beginning of the observations was noted. The observations were repeated (without re-treatment of the investigator's hand and arm) after 3 hours and again after 6 hours. Treatments were alternated between the different cages. Each observation was repeated 3 times. Tests were done with 20%, 5%, 2%, 0.5% 2-undecanone, 20% DEET, and the ethanol control.
With one exception, none of the mosquitoes succeeded in biting, although mosquitoes that landed on the investigator's arm were dislodged by flicking the arm or hand. In most cases, any physical movement of the hand or arm will induce the mosquito to leave. Thus, few if any bites were expected. Landings on the arm were considered as evidence of attraction, with intent to bite.

[4] = 0.5% on arm, 6 hours after treatment
[5] = 2% on arm, 6 hours after treatment
[6] = 5% on arm, 0 hours after treatment
[7] = 5% on arm, 3 hours after treatment
[8] = 5% on arm, 6 hours after treatment
[9] = 20% on arm, 0 hours after treatment
[10] = 20% on arm, 3 hours after treatment
[11] = 20% on arm, 6 hours after treatment

CCCCCCCCCC(C)=O [2-undecanone]
time cockroaches spend in treated region versus control region of flooring [1]: spend less time in the region containing 2-undecanone | residual activity ([2]; 1% concentration): none after 3 hours | duration of residual activity ([2]; 5% level): up to 12 hours | duration of residual efficacy ([2]; 20% concentration in mineral oil): up to 12 hours | Percent Efficacy Post-Treatment ([2]; 0 hours): 96.5% | NP, Mean ([2]; 0 hours after treatment): 2.3 | Percent (percent of mosquitoes responding, landings on the treated hand/arm) ([2]; 0 hours after treatment): 2.0% | NP ([2]; 0 hours after treatment): 2 (3×) and 0 and 3 and 5 | Percent Efficacy Post-Treatment ([2]; 3 hours): 90.1% | NP, Mean ([2]; 3 hours after treatment): 3.7 | Percent (percent of mosquitoes responding, landings on the treated hand/arm) ([2]; 3 hours after treatment): 5.0% | NP ([2]; 3 hours after treatment): 1 and 6 and 4 | Percent Efficacy Post-Treatment ([2]; 6 hours): 78.5% | NP, Mean ([2]; 6 hours after treatment): 24.7 | Percent (percent of mosquitoes responding, landings on the treated hand/arm) ([2]; 6 hours after treatment): 14.7% | NP ([2]; 6 hours after treatment): 24 and 21 and 29 | Percent Efficacy Post-Treatment ([2]; 9 hours): 81.5% | NP, Mean ([2]; 9 hours after treatment): 4.7 | Percent (percent of mosquitoes responding, landings on the treated hand/arm) ([2]; 9 hours after treatment): 11.8% | NP ([2]; 9 hours after treatment): 6 and 1 and 7 | Percent Efficacy Post-Treatment ([2]; 12 hours): 78.4% | number of bites recorded ([2]; 12 hours): 4 | NP, Mean ([2]; 12 hours after treatment): 7.7 | Percent (percent of mosquitoes responding, landings on the treated hand/arm) ([2]; 12 hours after treatment): 12.2% | NP ([2]; 12 hours after treatment): 4 and 8 and 11 | observed repellent activity (words) [2]: exceeding the efficacy of DEET (20%) and Citronella; also recorded: strong repellent activity | observed repellent activity (words) ([2]; listed as 2-Undecanone): Comments: The 2-undecanone formulation was highly repellent. At zero hours, all; also recorded: No bites were observed until 12 hours | number of bites recorded ([2]; zero hours): None attempted to feed | No. landings, Mean ([3]; 0.5% on arm, 0 hours after treatment): 0.7 | No. landings, Mean ([3]; 0.5% on arm, 3 hours after treatment): 0.7 | No. landings, Mean [3, 4]: 0.3 | No. landings [3, 4]: 0 (2×) and 1 | observed mosquito behavior / repellent effect (words) ([3]; 0.5% on arm): no differences between the treated arm and the ethanol controls were observed | observed mosquito behavior / repellent effect (words) ([3]; 0.5% on arm, listed as Undecanone): throughout the cage. No obvious avoidance, no dispersal away from | No. landings, Mean ([3]; 2% on arm, 0 hours after treatment): 0.7 | No. landings, Mean ([3]; 2% on arm, 3 hours after treatment): 1.0 | No. landings, Mean [3, 5]: 0.7 | No. landings [3, 5]: 1 (2×) and 0 | observed mosquito behavior / repellent effect (words) ([3]; 2% on arm): at three hours after treatment, there was no effect | No. landings, Mean [3, 6]: 0 | No. landings [3, 6]: 0 | No. landings, Mean [3, 7]: 0 | No. landings [3, 7]: 0 | No. landings, Mean [3, 8]: 1.0 | No. landings [3, 8]: 1 | observed mosquito behavior / repellent effect (words) ([3]; 5% on arm): immediate and obvious repellent behavior; also recorded: The effect was absent after 6 hours | observed mosquito behavior / repellent effect (words) ([3]; 5% on arm, listed as Undecanone): Comments: The formulation was highly repellent. Mosquitoes | No. landings, Mean [3, 9]: 0 | No. landings [3, 9]: 0 | No. landings, Mean [3, 10]: 0 | No. landings [3, 10]: 0 | No. landings, Mean [3, 11]: 0 | No. landings [3, 11]: 0 | observed mosquito behavior / repellent effect (words) ([3]; 20% on arm): the effect was lost after 6 hours | concentrations with the strongest repellent effect ([3]; tested at 20%, 5%, 2%, 0.5%): strongest effect at the 5% and 20% concentrations

CCN(CC)C(=O)c1cccc(C)c1 [DEET, N,N-diethyl-meta-toluamide, reference compound]
Percent Efficacy Post-Treatment ([2]; 0 hours): 96.0% | NP, Mean ([2]; 0 hours after treatment): 2.0 | Percent (percent of mosquitoes responding, landings on the treated hand/arm) ([2]; 0 hours after treatment): 2.3% | NP ([2]; 0 hours after treatment): 3 (2×) and 1 (2×) | Percent Efficacy Post-Treatment ([2]; 3 hours): 73.9% | NP, Mean ([2]; 3 hours after treatment): 18.7 | Percent (percent of mosquitoes responding, landings on the treated hand/arm) ([2]; 3 hours after treatment): 13.1% | NP ([2]; 3 hours after treatment): 22 and 11 and 23 | Percent Efficacy Post-Treatment ([2]; 6 hours): 75.9% | NP, Mean ([2]; 6 hours after treatment): 21.7 | Percent (percent of mosquitoes responding, landings on the treated hand/arm) ([2]; 6 hours after treatment): 16.5% | NP ([2]; 6 hours after treatment): 31 and 21 and 13 | Percent Efficacy Post-Treatment ([2]; 9 hours): 85.3% | number of bites recorded ([2]; 9 hours (later intervals)): 2 | NP, Mean ([2]; 9 hours after treatment): 7.3 | Percent (percent of mosquitoes responding, landings on the treated hand/arm) ([2]; 9 hours after treatment): 9.4% | NP ([2]; 9 hours after treatment): 11 and 7 and 4 | Percent Efficacy Post-Treatment ([2]; 12 hours): 71.3% | number of bites recorded ([2]; 12 hours): 22 | NP, Mean ([2]; 12 hours after treatment): 28.7 | Percent (percent of mosquitoes responding, landings on the treated hand/arm) ([2]; 12 hours after treatment): 16.2% | NP ([2]; 12 hours after treatment): 16 and 37 and 33 | observed repellent activity (words) [2]: strong repellent activity, similar to that observed for 2-undecanone | number of bites recorded ([2]; zero hours): one | No. landings, Mean [3, 9]: 0 | No. landings [3, 9]: 0 | No. landings, Mean [3, 10]: 0 | No. landings [3, 10]: 0 | No. landings, Mean [3, 11]: 0.3 | No. landings [3, 11]: 1 and 0 (2×) | observed mosquito behavior / repellent effect (words) ([3]; 20% on arm): The effect persisted after 3 hours, but was largely lost after 6 hours
